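Grown in 96-well plates, cells were treated for 48 hours with each compound at five concentrations. Insufficient inhibition: endpoint recorded as highest concentration tested. GI50 = concentration required for 50% inhibition of growth. TGI marks complete inhibition of growth.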
What was measured:
Assay in all cases: DTP human tumour cell line panel, 48 h
SR leukemia = tested on: SR leukemia
OVCAR-3 ovarian = tested on: OVCAR-3 ovarian
PC-3 prostate = tested on: PC-3 prostate
K-562 leukemia = tested on: K-562 leukemia
SF-539 CNS = tested on: SF-539 CNS
NCI-H522 lung = tested on: NCI-H522 lung
SK-MEL-2 melanoma = tested on: SK-MEL-2 melanoma
MDA-MB-435 = tested on: MDA-MB-435
BT-549 breast = tested on: BT-549 breast
RPMI-8226 leukemia = tested on: RPMI-8226 leukemia
SW-620 colon = tested on: SW-620 colon
TK-10 renal = tested on: TK-10 renal
ACHN renal = tested on: ACHN renal
OVCAR-5 ovarian = tested on: OVCAR-5 ovarian
CCRF-CEM leukemia = tested on: CCRF-CEM leukemia
NCI-H460 lung = tested on: NCI-H460 lung
A549 NSCLC = tested on: A549 NSCLC
MOLT-4 leukemia = tested on: MOLT-4 leukemia
KM12 colon = tested on: KM12 colon
UO-31 renal = tested on: UO-31 renal
UACC-62 melanoma = tested on: UACC-62 melanoma
A498 renal = tested on: A498 renal
UACC-257 melanoma = tested on: UACC-257 melanoma
MDA-MB-231 breast = tested on: MDA-MB-231 breast
IGROV1 ovarian = tested on: IGROV1 ovarian
HL-60(TB) leukemia = tested on: HL-60(TB) leukemia
OVCAR-8 ovarian = tested on: OVCAR-8 ovarian
HS 578T breast = tested on: HS 578T breast
HOP-92 NSCLC = tested on: HOP-92 NSCLC
NCI-H226 lung = tested on: NCI-H226 lung
DU-145 prostate = tested on: DU-145 prostate
SF-268 CNS = tested on: SF-268 CNS
NCI-H23 lung = tested on: NCI-H23 lung
SN12C renal = tested on: SN12C renal
NCI/ADR-RES ovarian = tested on: NCI/ADR-RES ovarian
786-0 renal = tested on: 786-0 renal
HCC-2998 colon = tested on: HCC-2998 colon
M14 melanoma = tested on: M14 melanoma
EKVX NSCLC = tested on: EKVX NSCLC
SK-MEL-5 melanoma = tested on: SK-MEL-5 melanoma
CAKI-1 renal = tested on: CAKI-1 renal
HCT-15 colon = tested on: HCT-15 colon
MCF7 breast = tested on: MCF7 breast
SF-295 CNS = tested on: SF-295 CNS
MALME-3M melanoma = tested on: MALME-3M melanoma
COLO 205 colon = tested on: COLO 205 colon
SNB-19 CNS = tested on: SNB-19 CNS
HOP-62 NSCLC = tested on: HOP-62 NSCLC
LOX IMVI melanoma = tested on: LOX IMVI melanoma
OVCAR-4 ovarian = tested on: OVCAR-4 ovarian
HT29 colon = tested on: HT29 colon
U251 CNS = tested on: U251 CNS
SK-OV-3 ovarian = tested on: SK-OV-3 ovarian
T-47D breast = tested on: T-47D breast
HCT-116 colon = tested on: HCT-116 colon

In the case of `O=C1C=CC(=O)C(c2cc(-c3ccc(Cl)cc3)nn2-c2ccccc2)=C1`, the GI50 (SR leukemia) is reported as 34.4 µM, the TGI (SR leukemia) is reported as > 100 µM and the GI50 (OVCAR-3 ovarian) is reported as 24.8 µM. The TGI (OVCAR-3 ovarian) was 54.6 µM, the GI50 (PC-3 prostate) was 17.4 µM and the TGI (PC-3 prostate) was 41.6 µM. The GI50 (K-562 leukemia) was 31.1 µM, the TGI (K-562 leukemia) was > 100 µM and the GI50 (SF-539 CNS) was 27.1 µM. It also gave a TGI (SF-539 CNS) of 51.1 µM, a GI50 (NCI-H522 lung) of 25.9 µM and a TGI (NCI-H522 lung) of 71.7 µM. For the same compound, the GI50 (SK-MEL-2 melanoma) was 51.3 µM, the TGI (SK-MEL-2 melanoma) was > 100 µM and the GI50 (MDA-MB-435) was 20.5 µM. It also gave a TGI (MDA-MB-435) of 46 µM, a GI50 (BT-549 breast) of 38 µM and a TGI (BT-549 breast) of 99.6 µM. The GI50 (RPMI-8226 leukemia) was 16.1 µM, the TGI (RPMI-8226 leukemia) was 41 µM and the GI50 (SW-620 colon) was 32.9 µM. For the same compound, the TGI (SW-620 colon) was > 100 µM, the GI50 (TK-10 renal) was 19.3 µM and the TGI (TK-10 renal) was 45 µM. For the same compound, the GI50 (ACHN renal) was 20.6 µM, the TGI (ACHN renal) was 41.8 µM and the GI50 (OVCAR-5 ovarian) was 27.2 µM. For the same compound, the TGI (OVCAR-5 ovarian) was 72.1 µM, the GI50 (CCRF-CEM leukemia) was 11.7 µM and the TGI (CCRF-CEM leukemia) was 81.8 µM. For the same compound, the GI50 (NCI-H460 lung) was 32.2 µM, the TGI (NCI-H460 lung) was > 100 µM and the GI50 (A549 NSCLC) was 21.9 µM. For the same compound, the TGI (A549 NSCLC) was 55.7 µM, the GI50 (MOLT-4 leukemia) was 37.4 µM and the TGI (MOLT-4 leukemia) was > 100 µM. For the same compound, the GI50 (KM12 colon) was 19 µM, the TGI (KM12 colon) was 44.3 µM and the GI50 (UO-31 renal) was 38.1 µM. For the same compound, the TGI (UO-31 renal) was > 100 µM, the GI50 (UACC-62 melanoma) was 16.6 µM and the TGI (UACC-62 melanoma) was 30.7 µM. The GI50 (A498 renal) was 10.7 µM, the TGI (A498 renal) was 48.9 µM and the GI50 (UACC-257 melanoma) was 29.7 µM. It also gave a TGI (UACC-257 melanoma) of 71.3 µM, a GI50 (MDA-MB-231 breast) of 12.2 µM and a TGI (MDA-MB-231 breast) of 29 µM. For the same compound, the GI50 (IGROV1 ovarian) was 35.8 µM, the TGI (IGROV1 ovarian) was > 100 µM and the GI50 (HL-60(TB) leukemia) was 36.2 µM. For the same compound, the TGI (HL-60(TB) leukemia) was > 100 µM, the GI50 (OVCAR-8 ovarian) was 40.5 µM and the TGI (OVCAR-8 ovarian) was > 100 µM. The GI50 (HS 578T breast) was 23.7 µM, the TGI (HS 578T breast) was 86.3 µM and the GI50 (HOP-92 NSCLC) was 23.5 µM. For the same compound, the TGI (HOP-92 NSCLC) was 67.2 µM, the GI50 (NCI-H226 lung) was 16.9 µM and the TGI (NCI-H226 lung) was 59.6 µM. The GI50 (DU-145 prostate) was 25.4 µM, the TGI (DU-145 prostate) was 91.1 µM and the GI50 (SF-268 CNS) was 21 µM. The TGI (SF-268 CNS) was 50 µM, the GI50 (NCI-H23 lung) was 17.5 µM and the TGI (NCI-H23 lung) was 42.9 µM. The GI50 (SN12C renal) was 23.5 µM, the TGI (SN12C renal) was 46.9 µM and the GI50 (NCI/ADR-RES ovarian) was 23.4 µM. The TGI (NCI/ADR-RES ovarian) was 54.7 µM, the GI50 (786-0 renal) was 16.9 µM and the TGI (786-0 renal) was 36.9 µM. The GI50 (HCC-2998 colon) was 18.8 µM, the TGI (HCC-2998 colon) was 34.4 µM and the GI50 (M14 melanoma) was 16.9 µM. The TGI (M14 melanoma) was 35.9 µM, the GI50 (EKVX NSCLC) was 41.6 µM and the TGI (EKVX NSCLC) was > 100 µM. The GI50 (SK-MEL-5 melanoma) was 18.3 µM, the TGI (SK-MEL-5 melanoma) was 39 µM and the GI50 (CAKI-1 renal) was 25.8 µM. For the same compound, the TGI (CAKI-1 renal) was 53.5 µM, the GI50 (HCT-15 colon) was 30.4 µM and the TGI (HCT-15 colon) was > 100 µM. The GI50 (MCF7 breast) was 18.8 µM, the TGI (MCF7 breast) was > 100 µM and the GI50 (SF-295 CNS) was 29.3 µM. The TGI (SF-295 CNS) was 66.3 µM.

For `COCP1(=S)OC(C)CCN1C(C)C` (stereo not given), the TGI (SR leukemia) was > 100 µM, the TGI (MALME-3M melanoma) was > 100 µM and the TGI (COLO 205 colon) was > 100 µM. For the same compound, the TGI (OVCAR-3 ovarian) was > 100 µM, the TGI (PC-3 prostate) was > 100 µM and the TGI (K-562 leukemia) was > 100 µM. The TGI (SF-539 CNS) was > 100 µM, the TGI (SK-MEL-2 melanoma) was > 100 µM and the TGI (MDA-MB-435) was > 100 µM. The TGI (SNB-19 CNS) was > 100 µM, the TGI (BT-549 breast) was > 100 µM and the TGI (RPMI-8226 leukemia) was > 100 µM. For the same compound, the TGI (SW-620 colon) was > 100 µM, the TGI (TK-10 renal) was > 100 µM and the TGI (HOP-62 NSCLC) was > 100 µM. The TGI (ACHN renal) was > 100 µM, the TGI (LOX IMVI melanoma) was > 100 µM and the TGI (OVCAR-5 ovarian) was > 100 µM. The TGI (NCI-H460 lung) was > 100 µM, the TGI (OVCAR-4 ovarian) was > 100 µM and the TGI (A549 NSCLC) was > 100 µM. The TGI (HT29 colon) was > 100 µM, the TGI (KM12 colon) was > 100 µM and the TGI (U251 CNS) was > 100 µM. The TGI (SK-OV-3 ovarian) was > 100 µM, the TGI (UO-31 renal) was > 100 µM and the TGI (UACC-62 melanoma) was > 100 µM. The TGI (UACC-257 melanoma) was > 100 µM, the TGI (T-47D breast) was > 100 µM and the TGI (MDA-MB-231 breast) was > 100 µM. The TGI (IGROV1 ovarian) was > 100 µM, the TGI (OVCAR-8 ovarian) was > 100 µM and the TGI (HCT-116 colon) was > 100 µM. The TGI (NCI-H226 lung) was > 100 µM, the TGI (DU-145 prostate) was > 100 µM and the TGI (SF-268 CNS) was > 100 µM. For the same compound, the TGI (NCI-H23 lung) was > 100 µM, the TGI (NCI/ADR-RES ovarian) was > 100 µM and the TGI (786-0 renal) was > 100 µM. The TGI (HCC-2998 colon) was > 100 µM, the TGI (M14 melanoma) was > 100 µM and the TGI (EKVX NSCLC) was > 100 µM. For the same compound, the TGI (SK-MEL-5 melanoma) was > 100 µM, the TGI (CAKI-1 renal) was > 100 µM and the TGI (HCT-15 colon) was > 100 µM. For the same compound, the TGI (MCF7 breast) was > 100 µM and the TGI (SF-295 CNS) was > 100 µM.

Source: PubChem BioAssay (NCI)
